The values that follow come from patent publication US7994326B2 (Northwestern University, priority 2003, dated 2011).

For orientation: IC50 means the point on the concentration scale where inhibition reaches its midpoint.

One assay has as its target T1, rat nNOS (Rattus norvegicus, UniProt P29476).
T1 construct: made in house; host or cells: E. coli (plasmid pCWnNOS)
The assay is described as follows: NOS enzyme inhibitory assay (hemoglobin capture), nNOS. It is filed as biochemical. The following applies: Table 1a; for Selectivity n/i: Ki(iNOS)/Ki(nNOS); for Ki: apparent Ki calculated from IC50, Km […], read-out: calc. Ki nNOS; for IC50: rat nNOS, 10 μM L-arginine. Here is the method: (§1) All of the NOS isoforms used were recombinant enzymes overexpressed in E. coli from different sources. Nitric oxide formation from NOS was monitored by the hemoglobin capture assay as described in the literature.
After approximately 48 h of post-induction incubation in the dark at 25° C. the cells were pelleted at 5300×g, transferred to 50 mL conical tubes, and stored at −80° C.
nNOS purification: Cell pellets from 2.0 L of culture were resuspended in sonication Buffer A (50 mM Tris Base Buffer, pH 8.0, 10% glycerol), 2 mg/ml lysozyme. 0.5 mM L-arginine. 1 mM EDTA, 0.1 mM PMSF, 1 µg/ml antipain, and 1 μM each of leupeptin, […], and […]) and lysed by sonication. Centrifugation for 1 h at 100000×g yielded supernatant which contained nNOS active enzyme. The supernatant was brought to 2 mM CaCl2 and the protein was loaded onto a 15 ml calmodulin-Sepharose column equilibrated with Buffer A containing 2 mM CaCl2. The column was washed with 100 ml Buffer B (50 mM Hepes, 5 mM DTT, and […]) containing 2 mM CaCl2, 0.5 mM L-arginine, and 10 μM BH4, and eluted with 30 ml Buffer B supplemented with 0.3 M NaCl, 5 mM EGTA, 0.5 mM L-arginine, and 10 μM BH4. The protein was then loaded onto a 5 ml 2′,5′-ADP-Sepharose column equilibrated with Buffer B supplemented with 0.3 M NaCl, 0.5 mM L-arginine, and 10 μM BH4. The column was washed with 25 ml Buffer B containing 0.5 mM L-arginine and 10 μM BH4, and then 25 ml of Buffer B only supplemented with 10 μM BH4 (without L-arginine). Neuronal NOS was eluted with 20 ml Buffer B supplemented with 10 mM 2′(3′)-AMP, 10 μM BH4 and 0.3 M NaCl. The 20 ml eluent was then concentrated to 5 ml by ultrafiltration. The above concentration operation was repeated twice more with 10 ml Buffer B supplemented with 10 µM BH4 to give the purified neuronal NOS.
Nitric oxide formation from NOS was monitored by the hemoglobin capture assay as described previously.
(§2) The selectivity of an inhibitor is defined as the ratio of the respective Ki values.

The target in a further assay is T2, murine iNOS (Mus musculus, UniProt P29477).
T2 construct: made in house; host or cells: E. coli (plasmid pCWiNOS)
The assay is described as follows: NOS enzyme inhibitory assay (hemoglobin capture), iNOS. It is filed as biochemical. The conditions noted are these: Table 1a; for Ki: apparent Ki calculated from IC50, Km […], read-out: calc. Ki iNOS; for IC50: murine iNOS, 10 μM L-arginine.
Description: as §1
Enzyme inhibitory assay. All of the NOS isoforms used are recombinant enzymes overexpressed in E. coli from different sources.
iNOS expression: An overnight culture of pCWiNOS was used to inoculate (1:100) larger cultures of Terrific Broth media (12 g/L tryptone, 24 g/L yeast extract, 4 mL/L glycerol, 17 mM KH2PO4, and 72 mM K2HPO4) containing 50 μg/mL ampicillin and 34 μg/mL chloramphenicol at 37° C. At an OD600 of ˜0.5, the culture was cooled to 25° C. and induced by the addition of 1 mM IPTG (final concentration). After approximately 24 h of growth at 25° C., the cells were pelleted at 5300×g, transferred to 50 mL conical tubes, and stored at −80° C.
iNOS purification: Cell pellets from 1.0 L of culture were resuspended in sonication buffer (50 mM Hepes, pH 7.4, 10% glycerol, 10 μg/mL benzamidine, 5 μg/mL leupeptin, 0.2 mM of PMSF, and 1 μg/mL each of pepstatin, chymostatin, and antipain) and lysed by sonication. Centrifugation for 20 min at 13000×g yielded supernatant which contained iNOS active enzyme. iNOS supernatant was loaded onto 1 g of a 2′,5′-ADP-Sepharose 4B resin column. The column was then washed with 20 ml iNOS purification buffer (10 mM K2HPO4, 10% glycerol, 0.5 mM L-arginine, pH 7.4) and 10 μM BH4. Inducible NOS was eluted with 30 ml iNOS purification buffer supplemented with 10 mM 2′(3′)-AMP, 10 μM BH4, and 0.3 M NaCl. The eluent was concentrated to 5 ml by ultrafiltration. The above concentration operation was repeated three times more with 10 ml Hepes buffer supplemented with 10 μM BH4, to give purified inducible NOS.
Nitric oxide formation from NOS was monitored by the hemoglobin capture assay as described previously. (Hevel, J. M.; Marletta, M. A. Nitric Oxide Synthase Assays. Methods Enzymol. 1994, […], 250-258).
as §2

With `Cl.Cl.Cl.Nc1cccc(C[C@H]2CN(Cc3ccccc3)C[C@H]2NCCCc2ccccc2)n1` (racemic) [Compound P-4], at rat nNOS, the Selectivity n/i stood at 12.71, the Ki was 47.9 µM and the IC50 was determined as 417 µM. On murine iNOS, the Ki is 609 µM and half-maximal inhibition (IC50) was put at 1340 µM.

For the compound `Cl.Cl.Cl.Cl.NCCN1CC(Cc2cccc(N)n2)C(NCCCc2ccccc2)C1` (racemic) [Compound P-9], at rat nNOS, the Selectivity n/i is on record as 10.28, the Ki was 28.6 µM and the half-maximal inhibitory concentration (IC50) was determined as 249 µM. In addition, on murine iNOS, the Ki was 295 µM and the IC50 is 649 µM.

`NCCN1CC(Cc2cccc(N)n2)C(NCCCO)C1` (racemic) [Compound P-8]: at murine iNOS, the Ki is 652 µM and the concentration for half-maximal inhibition (IC50) was 1440 µM.

On to `Cl.Cl.Cl.Nc1cccc(C[C@H]2CN(Cc3ccccc3)C[C@@H]2NCCCc2ccccc2)n1` (racemic) [Compound P-2], for which, on rat nNOS, the Selectivity n/i is recorded as 4.3, the Ki was 14 µM and the IC50 came out at 122 µM. In addition, at murine iNOS, the Ki was 60.1 µM and half-maximal inhibition (IC50) was put at 132 µM.

`Nc1cccc(CC2CNCC2NCCCO)n1` (racemic) [Compound P-13]: on murine iNOS, the Ki is 234 µM and the concentration for half-maximal inhibition (IC50) is 515 µM.

With `Cl.Cl.Cl.Cl.Nc1cccc(CC2CNCC2NCC2CCCN2)n1` (centres unmarked) [Compound P-40], on rat nNOS, the Selectivity n/i came out at 23.95, the Ki was 3.44 µM and the IC50 stood at 29.9 µM. Besides, at murine iNOS, the Ki was 82.4 µM and half-maximal inhibition (IC50) was put at 182 µM.

Consider `Cl.Cl.Cl.Cl.NCCNC1CC(N)CC1Cc1cccc(N)n1` (racemic) [Compound P-44], for which, at rat nNOS, the Selectivity n/i came out at 21.02, the Ki was 2.47 µM and the IC50 was 21.5 µM. In addition, on murine iNOS, the Ki is 51.9 µM and the IC50 amounted to 114 µM.

Regarding `Cl.Cl.Cl.Cl.NCCN1CC(Cc2cccc(N)n2)C(NCCCc2ccccc2)C1` (racemic) [Compound P-7], at rat nNOS, the Selectivity n/i was found to be 109.99, the Ki was 3.98 µM and the IC50 was determined as 34.6 µM. For the same compound, at murine iNOS, the Ki was 438 µM and the IC50 was determined as 965 µM.

On to `Cl.Cl.Cl.Cl.Nc1cccc(C[C@H]2CNC[C@H]2NC[C@H]2CCCN2)n1` [Compound P-42], for which, on rat nNOS, the Selectivity n/i was 31.97, the Ki is 2.19 µM and 19 µM corresponded to half-maximal inhibition (IC50). At murine iNOS, the Ki is 70 µM and it took 154 µM to reach half-maximal inhibition (IC50).

Take `Cl.Cl.Cl.NCCN1C[C@H](Cc2cccc(N)n2)[C@@H](O)C1` (racemic) [Compound P-6]: on rat nNOS, the Selectivity n/i was 8.41, the Ki is 12.4 µM and the IC50 worked out at 108 µM. Further, at murine iNOS, the Ki is 105 µM and it took 231 µM to reach half-maximal inhibition (IC50).

For `Cl.Cl.Cl.Cl.Nc1cccc(C[C@@H]2CNC[C@H]2NC[C@H]2CCCN2)n1` [Compound P-26], at rat nNOS, the Selectivity n/i was found to be 13.82; the Ki was 12.3 µM; the midpoint of inhibition, the IC50, lay at 107 µM. Moreover, on murine iNOS, the Ki is 170 µM and the IC50 amounted to 375 µM.

Consider `Cl.Cl.Cl.Cl.Nc1cccc(C[C@@H]2CNC[C@@H]2NC[C@@H]2CCCN2)n1` [Compound P-41], for which, on rat nNOS, the Selectivity n/i worked out at 4.67, the Ki was 5.66 µM and the half-maximal inhibitory concentration (IC50) was found to be 49.2 µM. At murine iNOS, the Ki is 26.4 µM and inhibition was half-maximal at 58.3 µM (IC50).

Consider `Cl.Cl.Nc1cccc(CC2CN(Cc3ccccc3)CC2O)n1` (racemic) [Compound P-1], for which, on rat nNOS, the Selectivity n/i amounted to 11.71, the Ki was 78.5 µM and inhibition was half-maximal at 682 µM (IC50). In addition, on murine iNOS, the Ki is 919 µM and half-maximal inhibition (IC50) was put at 2030 µM.

Consider `Cl.Cl.Cl.Cl.Nc1cccc(CC2CNCC2NCC2CCCN2)n1` (centres unmarked) [Compound P-24], for which, at rat nNOS, the Selectivity n/i is 21.15, the Ki is 14.5 µM and the IC50 was determined as 126 µM. For the same compound, on murine iNOS, the Ki was 306 µM and the IC50 turned out to be 674 µM.

Regarding `Cl.Cl.Cl.Nc1cccc(C[C@H]2CN(Cc3ccccc3)C[C@@H]2NCCCO)n1` (racemic) [Compound P-3], at rat nNOS, the Selectivity n/i was found to be 9.19; the Ki was 190 µM; the midpoint of inhibition, the IC50, lay at 1650 µM. Besides, on murine iNOS, the Ki was 1750 µM and the IC50 is 3860 µM.

On to `Cl.Cl.Cl.Cl.NCCNC1CC(N)CC1Cc1cccc(N)n1` (racemic) [Compound P-45], for which, at rat nNOS, the Selectivity n/i was 15.51, the Ki was 4.61 µM and half-maximal inhibition (IC50) was put at 40.1 µM. Further, on murine iNOS, the Ki is 71.5 µM and the IC50 is 158 µM.

`Cl.Cl.Cl.Cl.Nc1cccc(CC2CNCC2NCC2CCCN2)n1` (centres unmarked) [Compound P-23]: on rat nNOS, the Selectivity n/i was determined as 9.30, the Ki was 11.2 µM and the IC50 was determined as 96.9 µM. Also, on murine iNOS, the Ki is 104 µM and the 50% inhibitory concentration (IC50) worked out at 229 µM.

As to `NCCN1C[C@H](Cc2cccc(N)n2)[C@H](NCCCO)C1` (racemic) [Compound P-10], at murine iNOS, the Ki was 1250 µM and the IC50 stood at 2760 µM.

Turning to `Cl.Cl.Cl.Cl.Nc1cccc(CC2CNCC2NCC2CCCN2)n1` (centres unmarked) [Compound P-25], at rat nNOS, the Selectivity n/i turned out to be 7.58, the Ki was 2.44 µM and the IC50 turned out to be 21.2 µM. In addition, at murine iNOS, the Ki is 18.5 µM and the IC50 amounted to 40.8 µM.

Take `Cl.Cl.Cl.Cl.Nc1cccc(C[C@@H]2CNC[C@@H]2NC[C@H]2CCCN2)n1` [Compound P-43]: on rat nNOS, the Selectivity n/i turned out to be 9.22, the Ki was 4.55 µM and half-maximal inhibition (IC50) required 39.5 µM. Besides, on murine iNOS, the Ki was 42 µM and the IC50 was found to be 92.5 µM.

Turning to `Cl.Cl.Cl.Nc1cccc(CC2CN(Cc3ccccc3)CC2NCCCO)n1` (racemic) [Compound P-5], on rat nNOS, the Selectivity n/i came out at 8.27, the Ki is 305 µM and the IC50 was determined as 2650 µM. Further, on murine iNOS, the Ki was 2520 µM and the IC50 is 5560 µM.

Consider `Nc1cccc(C[C@H]2CNC[C@H]2NCCCO)n1` (racemic) [Compound P-28], for which, at murine iNOS, the Ki is 143 µM and the IC50 came out at 315 µM.
